Like-named read-outs stand apart in the source and are kept apart here.
Assays:
[1] = test system: oxidation of serum lipids; experiment: TBARS assay, rat serum; type: in vivo, male Sprague-Dawley rats; conditions: po, 96 h, read-out: TBARS, percent of control; for response vs control in vivo at 0.1 %: diet 0.1%
Source text: (§1) A typical experiment consisted of 4-6 groups of rats (N=5 per group) with 1 group being a control which received no MDL compound and the other groups being treated with 0.3% MDL compound. Some of the compounds were either repeated at 0.3% or evaluated again at the lower dose of 0.1%. Male Sprague-Dawley rats, 50-100 g, (Harlan Laboratories, Indianapolis, Ind.) were housed in groups of 5, fed ad libitum water and Purina Rodent chow (#5002) with or without MDL compound as a dietary admixture for 4 days. Dietary admixtures (0.3%) were made by mixing 1.2 grams of an MDL compound with 400 grams of Purina rodent chow (#5002). The MDL compound was mixed with approximately 50 grams of food using a mortar and pestle. This was added to the remainder of the food and mixed for 3 hours on a rotary mixer. In the morning of day 5, non-fasted rats were anesthetized with carbon dioxide, and blood was collected by cardiac puncture. Rats were sacrificed by cervical dislocation. Body weights and liver weights were recorded in grams. Food consumption was recorded as grams.cndot.day^-1.cndot.rat^-1. Deaths were recorded as mortality. Aliquots of fresh serum were used for clinical chemistries, thiobarbituric acid reactive substances (TBARS) and conjugated diene measurements. Aliquots of serum (~0.5mL) and whole livers were frozen at -20° C. for compound and metabolite concentration determination at a later time.
In this assay the oxidation of serum lipids is initiated with CuSO4, resulting in the formation of aldehydes, such as malondialdehyde (MDA). Upon incubation with thiobarbituric acid, the absorbance of the aldehydes can be detected at 530-540 nm. As stated in the previous example, TBARS values which are lower than control serum values indicate the relative ability of a test compound to inhibit the oxidation of lipids in a sample. TBARS were measured as follows: 100 μL of serum were mixed with 400 μL of a 5 mmol CuSO4 solution and incubated at 37° C. for 3 hr. The reactions were stopped by addition of 1.0 mL of 20% trichloroacetic acid. Then 1.0 mL of 0.67% thiobarbituric acid in 0.05N sodium hydroxide was added, mixed, and the samples incubated for 30 min at 90° C. Samples were centrifuged briefly to pellet undissolved material, and the supernatants were transferred to a 96-well microtiter plate. Absorbances were measured at 540 nm using a Biotek model EL311 microplate reader. The nmoles of MDA produced were calculated from a standard curve of 0 to 10 nmoles of MDA prepared from malonaldehyde bis(dimethylacetal). Serum samples from treated rats were compared to serum samples from control rats that received no MDL compound.

[2] = Clinical chemistries in serum of rats; type: in vivo, male Sprague-Dawley rats; conditions: for response vs control in vivo at 0.3 % / response vs control in vivo at 0.1 %: po, 96 h
Source text: as §1
Blood was allowed to clot at room temperature for 30 minutes. Serum was obtained after centrifugation for 10 min at 4° C. at 3000 rpm in a Beckman J-6M/E centrifuge with a JS-4.2 rotor. Fresh serum was analyzed by a COBAS MIRA S autoanalyzer (Roche Diagnostics) using Roche diagnostic reagents for the following clinical chemistry measurements: alkaline phosphatase (ALP, kit #44553), alanine transaminase (ALT, kit #42375), aspartate aminotransferase (AST, kit #42381), total cholesterol (CHOL, kit #44334), triglyceride (TG, kit #44120), and glucose (GLU, kit #44558). ALP, ALT, and AST were calculated as units/L. Cholesterol, triglycerides, and glucose were calculated as mg/dL.

[3] = HPLC quantitation of compound and metabolite concentration in rabbit serum and liver; type: in vivo, female New Zealand White rabbits; conditions: for concentration at 168 h: po
Procedure, shortened: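 Female New Zealand White rabbits fed 0.2% cholesterol chow with 0.4% compound (some at 0.26% or 0.6%) for 7 days (14 days at 0.6%), fasted overnight before sampling. Serum and liver extracts run by reverse-phase C18 HPLC, absorbance 240/254/420 nm, for parent, bisphenol and diphenoquinone; recovery-corrected, detection limit ~0.5 μg/mL.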

[4] = Rattus norvegicus, read-out: CHOL (total cholesterol), percent of control
[5] = Rattus norvegicus, read-out: TRIG (triglycerides), percent of control
[6] = rat serum, diet 0.3%, 4 days, read-out: CHOL (total cholesterol), percent of control
[7] = rat serum, diet 0.3%, 4 days, read-out: TRIG (triglycerides), percent of control
[8] = rat serum, diet 0.1%, 4 days, read-out: CHOL (total cholesterol), percent of control
[9] = rat serum, diet 0.1%, 4 days, read-out: TRIG (triglycerides), percent of control

Row | SMILES | response vs control in vivo at 0.3 % ([1]; Rattus norvegicus) [%] | response vs control in vivo at 0.3 % [2, 4] [%] | response vs control in vivo at 0.3 % [2, 5] [%] | ALP (alkaline phosphatase), percent of control ([2]; rat serum, diet 0.3%, 4 days) [%] | ALT (alanine aminotransferase), percent of control ([2]; rat serum, diet 0.3%, 4 days) [%] | AST (aspartate aminotransferase), percent of control ([2]; rat serum, diet 0.3%, 4 days) [%] | GLUC (glucose), percent of control ([2]; rat serum, diet 0.3%, 4 days) [%] | response vs control in vivo at 0.3 % ([1]; rat serum, diet 0.3%, 4 days) [%] | response vs control in vivo at 0.3 % [2, 6] [%] | response vs control in vivo at 0.3 % [2, 7] [%] | response vs control in vivo at 0.1 % ([1]; rat serum, 4 days) [%] | response vs control in vivo at 0.1 % [2, 8] [%] | response vs control in vivo at 0.1 % [2, 9] [%] | ALP (alkaline phosphatase), percent of control ([2]; rat serum, diet 0.1%, 4 days) [%] | ALT (alanine aminotransferase), percent of control ([2]; rat serum, diet 0.1%, 4 days) [%] | AST (aspartate aminotransferase), percent of control ([2]; rat serum, diet 0.1%, 4 days) [%] | GLUC (glucose), percent of control ([2]; rat serum, diet 0.1%, 4 days) [%] | also measured
1 | CC(C)(C)c1cc(OC[Si](C)(C)c2ccccc2)cc(C(C)(C)C)c1OC(=O)CCC(=O)O [MDL 103,076, 2,6-Di-t-butyl-4-[(dimethylphenylsilyl)methyloxy]phenol succinic acid ester] | 107 | 114 | 77 | 201 | 132 | 99 | 99 | – | – | – | – | – | – | – | – | – | – | –
2 | CC(C)(C)c1cc(SC[Si](C)(C)c2ccccc2)cc(C(C)(C)C)c1OC(=O)CCC(=O)O [MDL 103,141, 2,6-Di-t-butyl-4-[(dimethylphenylsilyl)methylthio]phenol sucinic acid ester] | 113 | 119 | 47 | 147 | 126 | 120 | 107 | – | – | – | – | – | – | – | – | – | – | –
3 | CC(=O)Oc1c(C(C)(C)C)cc(OC[Si](C)(C)c2ccccc2)cc1C(C)(C)C [MDL 103,377, 2,6-Di-t-butyl-4-[(dimethylphenylsilyl)methyloxy]phenol acetic acid ester] | – | – | – | 147 | 145 | 149 | 102 | 71 | 93 | 85 | – | – | – | – | – | – | – | –
4 | CC(C)(C)c1cc(OC[Si](C)(C)c2ccccc2)ccc1O [MDL 103,491, 2-t-Butyl-4-[(dimethylphenylsilyl)methyloxy]phenol] | – | – | – | 80 | 127 | 114 | 94 | 34 | 146 | 131 | 70 | 112 | 92 | 116 | 133 | 94 | 101 | Liver Parent = parent compound concentration ([3]; rabbit liver, diet 0.4%, 7 days): 0 µg/g; Liver Parent = parent compound concentration ([3]; rabbit liver, diet 0.6%, 14 days): 0 µg/g; Serum Parent = parent compound concentration ([3]; rabbit serum, diet 0.4%, 7 days): 0 µg/mL; Serum Parent = parent compound concentration ([3]; rabbit serum, diet 0.6%, 14 days): 0 µg/mL
5 | CN(C)c1ccc([Si](C)(C)COc2cc(C(C)(C)C)c(O)c(C(C)(C)C)c2)cc1 [MDL 104,556, 2,6-Di-t-butyl-4-[(4-N,N-dimethylaminophenyldimethylsilyl)methyloxy]phenol] | – | – | – | 112 | 106 | 101 | 113 | 34 | 119 | 95 | 61 | 96 | 74 | 112 | 125 | 107 | 102 | concentration at 168 h ([3]; rabbit liver, diet 0.4%, 7 days, read-out: Liver Parent = parent compound concentration): 7900 ng/g; concentration at 168 h ([3]; rabbit serum, diet 0.4%, 7 days, read-out: Serum Parent = parent compound concentration): 4900 ng/mL
6 | Cc1cc(OC[Si](C)(C)c2ccccc2)c(C)c(C)c1O [MDL 105,314, 2,3,6-Trimethyl-4-[(dimethylphenylsdilyl)methloxy]phenol] | 85 | 110 | 78 | 154 | 113 | 76 | 115 | – | – | – | – | – | – | – | – | – | – | –

From patent publication US5608095A, “Alkyl-4-silyl-phenols and esters thereof as antiatherosclerotic agents” (Hoechst Marion Roussel, Inc., priority 1996, dated 1997)
